Data published in PubChem BioAssay (NCI).
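Protocol summary: plate cells (96-well), add compound at 5 concentrations, incubate 48 h, interpolate endpoints linearly. Here, GI50 denotes the concentration required for 50% inhibition of growth. TGI marks complete inhibition of growth.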

Legend:
Assay in all cases: NCI anticancer screen, dose series, 48 h
K-562 leukemia = test system: K-562 leukemia
UO-31 renal = test system: UO-31 renal
SNB-75 CNS = test system: SNB-75 CNS
HOP-92 NSCLC = test system: HOP-92 NSCLC
HCT-116 colon = test system: HCT-116 colon
DU-145 prostate = test system: DU-145 prostate
SK-MEL-5 melanoma = test system: SK-MEL-5 melanoma
ACHN renal = test system: ACHN renal
BT-549 breast = test system: BT-549 breast
RXF 393 renal = test system: RXF 393 renal
MDA-MB-231 breast = test system: MDA-MB-231 breast
CAKI-1 renal = test system: CAKI-1 renal
MDA-MB-435 = test system: MDA-MB-435
TK-10 renal = test system: TK-10 renal
OVCAR-4 ovarian = test system: OVCAR-4 ovarian
UACC-257 melanoma = test system: UACC-257 melanoma
A498 renal = test system: A498 renal
SN12C renal = test system: SN12C renal
786-0 renal = test system: 786-0 renal
PC-3 prostate = test system: PC-3 prostate
NCI/ADR-RES ovarian = test system: NCI/ADR-RES ovarian
SF-539 CNS = test system: SF-539 CNS
HL-60(TB) leukemia = test system: HL-60(TB) leukemia
UACC-62 melanoma = test system: UACC-62 melanoma
OVCAR-5 ovarian = test system: OVCAR-5 ovarian
SF-295 CNS = test system: SF-295 CNS
SK-OV-3 ovarian = test system: SK-OV-3 ovarian
EKVX NSCLC = test system: EKVX NSCLC
KM12 colon = test system: KM12 colon
MCF7 breast = test system: MCF7 breast
HCT-15 colon = test system: HCT-15 colon
CCRF-CEM leukemia = test system: CCRF-CEM leukemia
SNB-19 CNS = test system: SNB-19 CNS
RPMI-8226 leukemia = test system: RPMI-8226 leukemia
HCC-2998 colon = test system: HCC-2998 colon
SK-MEL-28 melanoma = test system: SK-MEL-28 melanoma
T-47D breast = test system: T-47D breast
NCI-H460 lung = test system: NCI-H460 lung
U251 CNS = test system: U251 CNS
M14 melanoma = test system: M14 melanoma
A549 NSCLC = test system: A549 NSCLC
SF-268 CNS = test system: SF-268 CNS
HS 578T breast = test system: HS 578T breast
MOLT-4 leukemia = test system: MOLT-4 leukemia
NCI-H522 lung = test system: NCI-H522 lung
IGROV1 ovarian = test system: IGROV1 ovarian
OVCAR-8 ovarian = test system: OVCAR-8 ovarian
HOP-62 NSCLC = test system: HOP-62 NSCLC
SW-620 colon = test system: SW-620 colon
NCI-H226 lung = test system: NCI-H226 lung
HT29 colon = test system: HT29 colon
NCI-H23 lung = test system: NCI-H23 lung
COLO 205 colon = test system: COLO 205 colon

## COC[C@]12CCC(C)(C)C[C@H]1C1=CC[C@@H]3[C@@]4(C)CCCNC(C)(C)[C@@H]4CC[C@@]3(C)[C@]1(C)CC2
K-562 leukemia
  GI50: 350 nM
  TGI: 4650 nM
UO-31 renal
  GI50: 1410 nM
  TGI: 2790 nM
SNB-75 CNS
  GI50: 1530 nM
  TGI: 3410 nM
HOP-92 NSCLC
  GI50: 1170 nM
  TGI: 2580 nM
HCT-116 colon
  GI50: 1090 nM
  TGI: 2480 nM
DU-145 prostate
  GI50: 1810 nM
  TGI: 3370 nM
SK-MEL-5 melanoma
  GI50: 1580 nM
  TGI: 3050 nM
ACHN renal
  GI50: 1730 nM
  TGI: 3120 nM
BT-549 breast
  GI50: 1680 nM
  TGI: 3110 nM
RXF 393 renal
  GI50: 1370 nM
  TGI: 2880 nM
MDA-MB-231 breast
  GI50: 1890 nM
  TGI: 3620 nM
CAKI-1 renal
  GI50: 1820 nM
  TGI: 3560 nM
MDA-MB-435
  GI50: 1660 nM
  TGI: 3130 nM
TK-10 renal
  GI50: 1810 nM
  TGI: 3530 nM
OVCAR-4 ovarian
  GI50: 1700 nM
  TGI: 3340 nM
UACC-257 melanoma
  GI50: 1910 nM
  TGI: 3820 nM
A498 renal
  GI50: 1710 nM
  TGI: 3230 nM
SN12C renal
  GI50: 1510 nM
  TGI: 3070 nM
786-0 renal
  GI50: 1610 nM
  TGI: 3300 nM
PC-3 prostate
  GI50: 1310 nM
  TGI: 2640 nM
NCI/ADR-RES ovarian
  GI50: 1730 nM
  TGI: 3480 nM
SF-539 CNS
  GI50: 1560 nM
  TGI: 3050 nM
HL-60(TB) leukemia
  GI50: 1430 nM
  TGI: 3870 nM
UACC-62 melanoma
  GI50: 1620 nM
  TGI: 3120 nM
OVCAR-5 ovarian
  GI50: 1670 nM
  TGI: 3130 nM
SF-295 CNS
  GI50: 1730 nM
  TGI: 3210 nM
SK-OV-3 ovarian
  GI50: 1800 nM
  TGI: 3390 nM
EKVX NSCLC
  GI50: 1640 nM
  TGI: 3120 nM
KM12 colon
  GI50: 1790 nM
  TGI: 3480 nM
MCF7 breast
  GI50: 1250 nM
  TGI: 2820 nM
HCT-15 colon
  GI50: 1410 nM
  TGI: 2870 nM
CCRF-CEM leukemia
  GI50: 1260 nM
  TGI: 3190 nM
SNB-19 CNS
  GI50: 1760 nM
  TGI: 3300 nM
RPMI-8226 leukemia
  GI50: 1310 nM
  TGI: 3650 nM
HCC-2998 colon
  GI50: 1310 nM
  TGI: 2760 nM
SK-MEL-28 melanoma
  GI50: 1670 nM
  TGI: 3070 nM

## ClC(Cl)c1nc(-c2cccs2)n2nc(-c3ccccc3)cc2n1
K-562 leukemia
  GI50: 2130 nM
  TGI: > 100000 nM
UO-31 renal
  GI50: 1190 nM
  TGI: 4520 nM
T-47D breast
  GI50: 1510 nM
  TGI: 5720 nM
HOP-92 NSCLC
  GI50: 444 nM
  TGI: 2480 nM
HCT-116 colon
  GI50: 1300 nM
  TGI: 6870 nM
DU-145 prostate
  GI50: 293 nM
  TGI: 770 nM
SK-MEL-5 melanoma
  GI50: > 100000 nM
  TGI: > 100000 nM
NCI-H460 lung
  GI50: 299 nM
  TGI: 974 nM
ACHN renal
  GI50: 274 nM
  TGI: 1050 nM
BT-549 breast
  GI50: 8730 nM
  TGI: > 100000 nM
U251 CNS
  GI50: 326 nM
  TGI: 1820 nM
M14 melanoma
  GI50: 4350 nM
  TGI: > 100000 nM
A549 NSCLC
  GI50: 680 nM
  TGI: 2730 nM
SF-268 CNS
  GI50: 1600 nM
  TGI: 5180 nM
HS 578T breast
  GI50: 1600 nM
  TGI: 4710 nM
RXF 393 renal
  GI50: 477 nM
  TGI: 1690 nM
MDA-MB-231 breast
  GI50: 500 nM
  TGI: 2750 nM
CAKI-1 renal
  GI50: 1130 nM
  TGI: 4010 nM
MDA-MB-435
  GI50: 1470 nM
  TGI: 2990 nM
MOLT-4 leukemia
  GI50: 2820 nM
  TGI: > 100000 nM
TK-10 renal
  GI50: 3230 nM
  TGI: 6250 nM
OVCAR-4 ovarian
  GI50: 2020 nM
  TGI: 5060 nM
NCI-H522 lung
  GI50: > 100000 nM
  TGI: > 100000 nM
IGROV1 ovarian
  GI50: 2650 nM
  TGI: > 100000 nM
UACC-257 melanoma
  GI50: 2400 nM
  TGI: 5680 nM
A498 renal
  GI50: 1250 nM
  TGI: 2530 nM
SN12C renal
  GI50: > 100000 nM
  TGI: > 100000 nM
786-0 renal
  GI50: 2370 nM
  TGI: > 100000 nM
PC-3 prostate
  GI50: 1180 nM
  TGI: 3750 nM
OVCAR-8 ovarian
  GI50: 1150 nM
  TGI: > 100000 nM
NCI/ADR-RES ovarian
  GI50: 912 nM
  TGI: 4090 nM
SF-539 CNS
  GI50: 1100 nM
  TGI: 2940 nM
HL-60(TB) leukemia
  GI50: 267 nM
  TGI: 1310 nM
OVCAR-5 ovarian
  GI50: 1740 nM
  TGI: 5120 nM
HOP-62 NSCLC
  GI50: 419 nM
  TGI: 2990 nM
SW-620 colon
  GI50: 681 nM
  TGI: 3490 nM
SF-295 CNS
  GI50: 801 nM
  TGI: 3390 nM
NCI-H226 lung
  GI50: > 100000 nM
  TGI: > 100000 nM
SK-OV-3 ovarian
  GI50: 1890 nM
  TGI: 6660 nM
HT29 colon
  GI50: 355 nM
  TGI: 1750 nM
KM12 colon
  GI50: 2480 nM
  TGI: 8340 nM
MCF7 breast
  GI50: 425 nM
  TGI: 3530 nM
HCT-15 colon
  GI50: 1060 nM
  TGI: 3630 nM
CCRF-CEM leukemia
  GI50: 5920 nM
  TGI: > 100000 nM
SNB-19 CNS
  GI50: 635 nM
  TGI: 3710 nM
NCI-H23 lung
  GI50: 1470 nM
  TGI: 4440 nM
RPMI-8226 leukemia
  GI50: 472 nM
  TGI: 2560 nM
HCC-2998 colon
  GI50: 464 nM
  TGI: 1740 nM
SK-MEL-28 melanoma
  GI50: 1690 nM
  TGI: 3220 nM
COLO 205 colon
  GI50: 476 nM
  TGI: 2070 nM
